Laboratory results published in patent US8916717B2, “Dioxaspiroketal derivatives, process for their preparation and uses thereof” (Consiglio Nazionale Delle Ricerche, priority 2006, dated 2014).
Like-named read-outs stand apart in the source and are kept apart here.

What was measured:
Cδ protein kinase = Cδ protein kinase (Homo sapiens, UniProt Q05655); conditions: Watters et al., 1998; cited from earlier work
telomerase = target: T1, telomerase (Homo sapiens, UniProt O14746); assay: Telomerasic activity (TeloTAGGG Telomerase PCR ELISA) in extracts of treated tumor cells; format: cell-based; conditions: 48 hours; for telomerase enzymatic activity: 1.25 μg/ml; for inhibition at 12.5 µg/mL / inhibition at 25 µg/mL: read-out: telomerase inhibition in comparison to control
T1 construct: endogenous in cells; host or cells: MCF-7, H-125 and M14 tumour cells
T1 sequence (O14746 whole entry): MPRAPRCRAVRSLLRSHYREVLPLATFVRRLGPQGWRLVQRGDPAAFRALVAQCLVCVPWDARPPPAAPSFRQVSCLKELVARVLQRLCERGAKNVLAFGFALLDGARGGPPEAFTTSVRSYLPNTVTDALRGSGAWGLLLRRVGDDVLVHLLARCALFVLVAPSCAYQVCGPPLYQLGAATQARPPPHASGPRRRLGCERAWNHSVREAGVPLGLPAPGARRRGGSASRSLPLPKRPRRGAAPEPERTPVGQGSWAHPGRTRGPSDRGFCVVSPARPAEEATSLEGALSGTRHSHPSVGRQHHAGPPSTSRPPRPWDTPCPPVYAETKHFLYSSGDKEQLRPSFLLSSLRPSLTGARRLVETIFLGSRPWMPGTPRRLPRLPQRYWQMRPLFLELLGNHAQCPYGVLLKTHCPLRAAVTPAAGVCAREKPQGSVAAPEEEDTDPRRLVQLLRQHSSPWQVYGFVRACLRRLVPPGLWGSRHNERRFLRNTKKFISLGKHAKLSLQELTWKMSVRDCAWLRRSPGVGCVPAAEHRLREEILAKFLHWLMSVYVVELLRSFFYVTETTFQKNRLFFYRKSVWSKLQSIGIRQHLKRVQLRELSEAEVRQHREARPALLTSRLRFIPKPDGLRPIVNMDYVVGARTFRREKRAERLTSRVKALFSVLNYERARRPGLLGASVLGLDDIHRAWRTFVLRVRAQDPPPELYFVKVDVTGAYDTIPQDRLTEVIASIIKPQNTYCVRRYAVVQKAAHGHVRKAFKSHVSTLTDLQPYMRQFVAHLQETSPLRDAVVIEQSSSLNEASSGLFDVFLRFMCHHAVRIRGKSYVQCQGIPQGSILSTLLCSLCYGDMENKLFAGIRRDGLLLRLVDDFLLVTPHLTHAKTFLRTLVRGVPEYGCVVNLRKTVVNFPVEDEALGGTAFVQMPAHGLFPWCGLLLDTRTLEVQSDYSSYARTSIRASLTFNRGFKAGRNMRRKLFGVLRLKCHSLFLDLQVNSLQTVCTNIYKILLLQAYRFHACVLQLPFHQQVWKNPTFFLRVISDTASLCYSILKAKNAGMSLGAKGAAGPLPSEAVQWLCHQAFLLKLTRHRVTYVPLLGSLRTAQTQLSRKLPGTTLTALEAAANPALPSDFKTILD
Description: Telomerasic activity was evaluated using TeloTAGGG Telomerase PCR ELISA kit, photometric enzymatic immunoassay from Roche (Mannheim, Germany). At time of the test, frozen pellet was lysed directly in the tests-tube using 80 μl of cold extraction buffer. Telomerase amplification was carried out by PCR (30 cycles, 94° C. 30 sec; 52° C. 30 sec; 72° C. 45 sec). Telomerasic activity was determined on the cell extracts according to the protocol recommended by the supplier. Sample absorbance (OD, optical density) was measured at 450 nm in a multi-well plate reader (SpectraCount, Pakard, Meriden, Conn., USA). In order to evaluate telomerasic activity, MCF-7, H-125 and M14 tumor cells were treated for 48 hours with serial doses of methyl-spirane (from 1.25 μg/ml to 50 μg/ml) as above described. Subsequently, the cells have been detached from culture plates by trypsinization, centrifuged, pelletized, and stored at −80° C. until the use.
As to telomerase, the cells have been exposed in vitro at 1.25, 12.5, 25, 50 μg/ml of methyl-spirane and evaluated for telomerasic activity (TLMA) using ELISA assay, 48 hours after the treatment. […] Particularly, in the FIG. 10, panels A-C, the effects at various concentrations (1.25, 12.5, 25, 50) of methyl-spirane on MCF-7, H-125 and M14 cell, lines after 48 hours of treatment are shown.

[1] = test system: M14 malignant melanoma cells; assay: Cell cycle by flow cytometry analysis (propidium iodide); format: cell-based, human; conditions: M14, starting from 10 μg/ml dose, after 24 hours of treatment
Description: (§1) For apoptosis and cellular cycle analysis, control or various concentration MS treated cells have been removed from the culture by means of trypsinization, re-suspended in PBS, washed two times with cold PBS and fixed with 50% of acetone and methanol (1:4) in PBS at 4° C. Fixed cells then were washed in PBS and stained with propidium iodide 50 μg/ml (PI) in the presence of RNase A 100 KU/ml.
(§2) Samples have been analyzed using a FACScan cytometer and fluorescence propidium red signals have been registered on linear scale. Cell fluorescence has been analyzed using a FACScan flow cytometer (Becton Dickinson, USA) using a 488 nm emitting argon laser. Data have been analyzed electronically excluding detritus and cell aggregates. In the red fluorescence, that is proportional to the DNA cell content, the apoptotic cells are represented by hypodiploid peak (cells with DNA fractioned content), easy distinguishable from the healthy cell DNA diploid peak. The fraction of the apoptotic cells is calculated integrating the pre-G1 peak. This cell fraction is representative for those having a PI decreasing coloration, considered a marker of DNA fragmentation, phenomenon associated to cell death by apoptosis. The analysis of cell cycle distribution after 24, 48 and 72 hours of MS treatment has been carried out using ModFitLT software (Becton Dickinson Immunocytometry Systems).

[2] = test system: peripheral blood lymphocytes (PBL) from healthy donors; assay: Toxicity on not tumor healthy human cells, supravital propidium iodide method; format: cell-based; conditions: for % apoptotic / % necrotic / % viable: PBL, 48 hours
Description: […] After 24 and 48 hours of culture, treated lymphocytes have been analyzed using supravital propidium iodide method (PI).
IN short this system is based on the use of propidium iodide, a fluorescent marker for the cellular DNA that normally penetrates only into the fixed or permeable made cells. PI supravital method is based on the principle that supravital exposure to propidium (high concentration of propidium for some hours at 37° C.) of not previously permeable made cells identifies in the population apoptotic cells clearly distinguishing them from necrotic or viable ones. Cells labeled with 40 μg/ml of propidium iodide directly in culture plates, are incubated at 37° for 1 hour and 30 minutes and analyzed using the flow cytometer.

M14 cell line (melanoma) = assay: Cell apoptosis and necrosis by flow cytometry analysis; format: cell-based, human
Description: as §1
as §2, with “This cell fraction is representative for those having a PI decreasing coloration, considered a marker of DNA fragmentation, phenomenon associated to cell death by apoptosis. The analysis of cell cycle distribution after 24, 48 and 72 hours of MS treatment has been carried out using ModFitLT software (Becton Dickinson Immunocytometry Systems).” left out
For the necrosis evaluation, an aliquot of not fixed cells (1×10^6) was incubated with 40 μg/ml PI for 1.5 hour at 37° C. The samples, directly in their coloring solution, have been then analyzed using FACScan flow. […] Apoptotic cells have been detected by FSC/PI dot plot as PI^dim peak, meanwhile P^− and PI^bright represent viable and necrotic cells, respectively.

MCF-7 cells = assay: Cell proliferation and viability determination (trypan blue dye exclusion cell counts); format: cell-based, human; conditions: 1.25 μg/ml
Description: The study has been carried out using representative tumor cell lines with different histological origin: MCF-7 breast carcinoma (human), M14 (human) and B16 (murine) melanomas, H125 (human) pulmonary carcinoma, HT-29 (human) colon carcinoma, HL-60 (human) promyelocytic leukemia.
All cell lines have been cultured in RPMI-1640 (Hyclone Europe, Cramlington, UK) medium supplemented with 10% of heat inactivated (56° C., 30 minutes) bovine fetal serum (Hyclone Laboratories, Logan, Utah), 2 mM L-glutamine and antibiotics (Life Technologies Ltd., Paisley, Scotland) (complete medium, CM). Cells have been stored at 37° C. in humidified atmosphere with 5% CO2.
Cell suspensions (HL-60) have been harvested and counted. Plastic adherent cells, in semi-confluence condition, have been detached by a short exposure at 0.025% trypsin with 0.01% EDTA and counted.
All used tumor cells have been harvested, suspended in CM and seeded in 24-well plates at 10^5 cell concentration in a final volume of 2 ml/well. For adherent cells a pre-incubation for 18 hours has been carried out in order to promote the adhesion to plastic. […] The cell proliferation, viability and death have been determined by means of cell counts in trypan blue (dye exclusion test) using a hemocytometer.

[3] = test system: 60 haematological and epithelial human cancer cell lines of NCI panel; conditions: 60 human cancer cell lines, NCI panel (Uckun et al., 2000); cited from earlier work

Cδ protein kinase, sequence (Q05655 whole entry): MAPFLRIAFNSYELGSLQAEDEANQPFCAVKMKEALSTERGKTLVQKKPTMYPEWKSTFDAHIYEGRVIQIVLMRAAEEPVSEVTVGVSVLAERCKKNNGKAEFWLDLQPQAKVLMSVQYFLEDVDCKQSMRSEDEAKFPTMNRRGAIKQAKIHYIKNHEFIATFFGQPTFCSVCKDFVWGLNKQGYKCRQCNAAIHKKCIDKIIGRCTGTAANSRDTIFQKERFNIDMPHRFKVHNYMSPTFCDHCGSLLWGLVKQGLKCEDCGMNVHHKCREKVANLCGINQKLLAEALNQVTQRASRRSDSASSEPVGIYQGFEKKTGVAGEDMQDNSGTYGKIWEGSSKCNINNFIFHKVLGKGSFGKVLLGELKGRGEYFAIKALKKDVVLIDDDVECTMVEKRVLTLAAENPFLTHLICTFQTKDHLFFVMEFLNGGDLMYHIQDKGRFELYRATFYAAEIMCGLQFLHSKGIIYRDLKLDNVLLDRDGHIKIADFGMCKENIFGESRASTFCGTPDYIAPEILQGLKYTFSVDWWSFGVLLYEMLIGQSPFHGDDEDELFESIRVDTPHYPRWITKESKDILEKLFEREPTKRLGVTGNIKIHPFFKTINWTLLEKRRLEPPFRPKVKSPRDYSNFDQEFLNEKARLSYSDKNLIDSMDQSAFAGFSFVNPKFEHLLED

C/C=C/C(=O)CC1CCC(C)C(CC(=O)NCC(O)C(C)C(=O)NCCCC2OC3(CCC2C)COCC(CCC(C)/C=C(\C)C(C)O)C3)O1 (centres unmarked) [B[…]]
activation of Cδ protein kinase (PKCs isoform) (Cδ protein kinase): specific activator

CC1CCCC2(OC(O)C=CC2=O)O1 (centres unmarked) [methyl-spirane, 1,7-dioxaspiro[5,5]-8-methyl-undecen-3-en-5-oxa-2-ol]
telomerase enzymatic activity (telomerase; H-125): very scarcely influenced
telomerase enzymatic activity (telomerase; MCF-7): very scarcely influenced
inhibition at 12.5 µg/mL (telomerase; 12.5 μg/ml, M14): 61%
inhibition at 25 µg/mL (telomerase; 25 μg/ml, M14): 75%
inhibition at 50 µg/mL (telomerase; 50 μg/ml, two cell lines not named (of MCF-7, H-125, M14)): 80%
telomerasic activity (TLMA) (telomerase; 1.25, 12.5, 25, 50 μg/ml, all the examined cell lines): concentration-dependent reduction
inhibition at 12.5 µg/mL (telomerase; MCF7, 12.5 μg/ml, MCF-7): 43%
inhibition at 25 µg/mL (telomerase; MCF7, 25 μg/ml, MCF-7): 64%
inhibition at 12.5 µg/mL (telomerase; NCI-H125, 12.5 μg/ml, H-125): 50%
inhibition at 25 µg/mL (telomerase; NCI-H125, 25 μg/ml, H-125): 68%
effect on cell cycle (G1 step) [1]: increment of the G1 step
% apoptotic ([2]; 3.15 μg/ml): 2.5%
% necrotic ([2]; 3.15 μg/ml): 16%
% viable ([2]; 3.15 μg/ml): 81.5%
% apoptotic ([2]; 6.25 μg/ml): 6.4%
% necrotic ([2]; 6.25 μg/ml): 15.6%
% viable ([2]; 6.25 μg/ml): 78%
% apoptotic ([2]; 12.5 μg/ml): 30.1%
% necrotic ([2]; 12.5 μg/ml): 40.0%
% viable ([2]; 12.5 μg/ml): 29.7%
% apoptotic ([2]; 25 μg/ml): 33.1%
% necrotic ([2]; 25 μg/ml): 56.6%
% viable ([2]; 25 μg/ml): 10.0%
% apoptotic ([2]; 50 μg/ml): 21.7%
% necrotic ([2]; 50 μg/ml): 70.0%
% viable ([2]; 50 μg/ml): 8.2%
% apoptotic ([2]; 100 μg/ml): 15.0%
% necrotic ([2]; 100 μg/ml): 84.0%
% viable ([2]; 100 μg/ml): 1.0%
necrosis with respect to the control on human lymphocytes ([2]; low concentrations (for example, 1.25 μg/ml)): no increase of necrosis
apoptosis induction (M14 cell line (melanoma); M14, 25 μg/ml, after 24 hours): apoptosis is already observed
concentration-dependent increase of apoptosis (M14 cell line (melanoma); M14, concentrations higher than 1.25 μg/ml, after 72 hours of treatment): 30-50%
effect on tumour cell growth in vitro (MCF-7 cells): inhibiting effects

spongistatin 1
cytotoxicity IC50 [3]: sub-nanomolar
